Measured values as given in patent US20130156932A1, “Method of increasing the milk and/or meat quantity of silage-fed animals” (BASF SE, priority 2007, published 2013).

Tests used:
Type in all cases: in vivo, Zea mays (maize)
corn [1] = assay: Corn silage strip trials Maryland 2006: NIRS forage quality and MILK 2006 calculated milk production
Experimental: (§1) Field trials were conducted as strip trials in farm fields in 2006 and 2008. A part of the field was treated with pyraclostrobin applied as Headline® whereas another part was left untreated. Headline® was applied at tassel emergence with 0.44 L/ha (110 g pyraclostrobin per ha) by aerial or ground application with a high clearance sprayer. Total spray volume was 93.5 to 187 L/ha for ground application and 18.7 to 46.7 L/ha for aerial application, respectively. Water was used as a carrier to prepare the spray mixture.
(§2) Trials were harvested using a commercial forage harvester when the corn crop reached a dry matter content of about 30 to 40%. The treated and untreated area of the field was harvested separately to gain total biomass yield (ton/acre). Subsequently, the harvested plant material was used for producing silage.
(§3) Forage samples from the harvested plants were taken from both the treated and untreated areas of the field. Samples were taken from the harvested material in the forage wagon following chopping with the commercial harvester. Multiple forage samples were taken for each of both treatments manually during harvesting in each of the trials, mixed in a larger container, and a subsample of 1.3 to 2.25 kg was taken. The subsamples were placed in plastic bags, sealed, cooled, and shipped immediately to Agsource Soil and Forage Laboratory, 106 North Cecil Street, Bonduel Wis. 54107, USA for Near Infrared Reflectance Spectroscopy (NIRS) analysis.
(§4) Typically, samples for NIRS analysis are first dried at 55 to 65° C. for 24 h to 48 h prior to analysis. A representative subsample thereof is then dried at 105° C. for another 12 h to 24 h to evaluate the dry matter content of the samples. Subsequently, the remaining sample is grinded and homogenized and again a representative subsample is used for the NIRS analysis. The NIRS analysis procedure uses a commercially available calibration to estimate the values for each quality parameter based on the spectral reflectance information gained. The calibrations are based on the near infra red reflectance spectra of samples with known quality data. The comparison of the spectra of the samples with unknown quality data with the spectra of the known samples allows calculating estimates for each quality parameter of interest.
NIRS analysis provided dry matter, crude protein, Acid Detergent Fibre (ADF), Neutral Detergent Fibre (NDF), and starch data. Calculations were included for moisture, adjusted crude protein, Total Digestible Nutrients (TDN), Net Energy for Lactation (NEL), Net Energy for Gain (NEG) and protein solubility.
The information was then entered into the MILK 2006 University of Wisconsin Corn Silage evaluation system. Calculations of the milk production, energy content and digestibility per ton of corn biomass were carried out using a calculation method described in:
a) Schwab, E. C., and R. D. Shaver. 2001: “Evaluation of corn silage nutritive value using MILK2000” (pages 21-24) in Proc. of 25th Forage Production and Use Symposium. WI Forage Council Annual Mtg. Eau Claire, Wis.
b) Schwab, E. C., R. D. Shaver. J. G. Lauer, and J. G. Coors. 2003: “Estimating silage energy value and milk yield to rank corn hybrids”. J. Anim. Feed Sci. Technol. 109: 1-18. as well as in
c) Undersander, D. J., W. T. Howard, and R. D. Shaver. 1993: “Milk per acre spreadsheet for combining yield and quality into a single term”. J. Prod. Ag. 6: 231 235.
In 2006 a total of 16 strip trials were conducted in Queen Ann County, Md. Trial setup, treatments, application, harvesting, sampling and quality analysis including calculation of milk production per ton and per acre followed the procedure described before.

corn [2] = assay: Corn silage strip trials Wisconsin 2006: NIRS forage quality and MILK 2006 calculated milk production
Experimental: as §1, §2, §3
as §4, with “The calibrations are based on the near infra red reflectance spectra of samples with known quality data. The comparison of the spectra of the samples with unknown quality data with the spectra of the known samples allows calculating estimates for each quality parameter of interest.” left out

corn [3] = assay: Corn silage strip trials New York 2006: NIRS forage quality and MILK 2006 calculated milk production; conditions: New York 2006, pyraclostrobin vs untreated
Experimental: as §1, §2
as §3, with “54107, USA for Near Infrared Reflectance Spectroscopy (NIRS) analysis.” left out

corn hybrid varieties = assay: Field trial Wisconsin 2008 with eight corn hybrids: calculated milk production per ton of harvested biomass
Experimental: as §1, §2
as §3, with “54107, USA for Near Infrared Reflectance Spectroscopy (NIRS) analysis.” left out

[4] = Maryland 2006, pyraclostrobin vs untreated
[5] = Wisconsin 2006, pyraclostrobin vs untreated

COC(=O)N(OC)c1ccccc1COc1ccn(-c2ccc(Cl)cc2)n1 [Pyraclostrobin, pyraclostrobin]
total digestible nutrients as percent of dry matter (TDN % of DM) (corn [1]; Maryland 2006, average of 16 strip trials, 110 g pyraclostrobin per ha): 70.0 % of DM | crude protein content (% CP) (corn [1]; Maryland 2006, average of 16 strip trials, Headline at tassel emergence, 110 g pyraclostrobin per ha): 7.1% | % CP, % Difference to Untreated (corn [1]; [4]): +6.0% | % NDF, % Difference to Untreated (corn [1]; [4]): −4.8% | % NDFD, % Difference to Untreated (corn [1]; [4]): +3.9% | Milk (kg/t), % Difference to Untreated (corn [1]; [4]): +5.9% | TDN % of DM, % Difference to Untreated (corn [1]; [4]): +3.6% | crude protein content (% CP) (corn [2]; Wisconsin 2006, average of 7 strip trials, 110 g pyraclostrobin per ha): 7.5% | % CP, % Difference to Untreated (corn [2]; [5]): +4.2% | Milk (kg/t), % Difference to Untreated (corn [2]; [5]): +14.0% | % CP, % Difference to Untreated (corn [3]): +6.0% | % Dry Matter, % Difference to Untreated (corn [3]): −2.2% | Calculated milk production, Milk (kg/t) (corn hybrid varieties; Example 4.6, hybrid DS93VT3, Wisconsin 2008): 1600 kg/t | milk production per ton of harvested corn biomass used to produce silage (corn hybrid varieties; across the eight tested different corn hybrids, result in words): improves the milk production
